In US20050215564A1, “Methods and compositions for treating hyperproliferative conditions” (priority 2002, published 2005):

Legend:
[1] = test system: ras-transformed fibroblasts (ras 3T3 cells); test: MTS-based cell-viability assay, control cells (FIG. 3B); settings: for survival (viable surviving fraction): MTS assay at day 5, over the dose range examined; for effect on cell growth: singly or together
Method: Screening Assay. […] Cells were plated and attached overnight in growth media consisting of DMEM with 10% fetal bovine serum (FBS). […] Media with agents was replaced every 48 hours. At day 5 and 8, media was withdrawn and cells were fixed and stained in 0.5% crystal violet in 70% methanol. The crystal violet stained cells reveal a dense intact monolayer in media absent either agent. […] This observed synergistic effect is an important finding in the treatment of diseases characterized by hyperproliferation of cells. […] For cell-counting assays, 5×10^3 cells were plated in triplicate in 100 mm cell culture dishes and allowed to attach overnight as above in DMEM+10% FBS and treated with agents in DMEM+5% PPP. Media and agents were replaced every 48 hours. At day 5 cells were trypsinized and counted with hemacytometer.
For the MTS-based cell-viability assay, 5×10^3 cells were plated in 24 well dishes overnight in DMEM+10% FBS. […] Each condition was assayed in triplicate. Media and agents were replaced every 48 hours and viable surviving fraction estimated using the MTS assay at day 5 following treatment.

[2] = test system: simian sarcoma virus-transformed NIH/3T3 (sis 3T3) fibroblast cells; test: Screening assay, crystal violet staining of cells in 12-well dishes (FIG. 1); type: cell-based; settings: single agent in increasing amounts (STI-571 0-3 μM; ADW 0-1 μM), DMEM+5% PPP, crystal violet at day 5 and 8
Method: Screening Assay. […] Cells were plated and attached overnight in growth media consisting of DMEM with 10% fetal bovine serum (FBS). […] Media with agents was replaced every 48 hours. At day 5 and 8, media was withdrawn and cells were fixed and stained in 0.5% crystal violet in 70% methanol. […] For cell-counting assays, 5×10^3 cells were plated in triplicate in 100 mm cell culture dishes and allowed to attach overnight as above in DMEM+10% FBS and treated with agents in DMEM+5% PPP. Media and agents were replaced every 48 hours. At day 5 cells were trypsinized and counted with hemacytometer.

[3] = test system: chronic myeloid leukemia and gastrointestinal stromal tumours; settings: humans; cited from earlier work

SMILES | survival (viable surviving fraction) [1] | effect on cell growth [1] | density of cells in the monolayer [2] | efficacy in treating chronic myeloid leukemia and gastrointestinal stromal tumours [3]
Nc1ncnc2c1c(-c1cccc(OCc3ccccc3)c1)cn2[C@H]1C[C@H](CN2CCCC2)C1 [ADW, trans-5-(3-benzyloxy-phenyl)-7-(3-pyrrolidin-1-ylmethyl-cyclobutyl)-7H-pyrrolo[2,3-d]pyrimidin-4-ylamine] | decreased survival | little effect | – | –
Cc1ccc(NC(=O)c2ccc(CN3CCN(C)CC3)cc2)cc1Nc1nccc(-c2cccnc2)n1 [STI-571] | no effect on survival | little effect | visibly depleted | effective
